The supplement of paper PMC11208160

Test: recombinant UMI read abundance after kanamycin selection (control-corrected) (log10(CPM+1)); higher = more efficient recombination; extreme values may be limits of the assay; sequences stand for … in AGTGCAGAGAAAATCGGCCAGTTTTCTCTGCCTGCAGTCCGCATGCCGTGGGACCCCTTGGGTTCTAACCTGTTGCCTAGATTTATGCAGCGGACTGCCTTTCTCCCAAAGTGATAAACCGG…AGGTTGGTTTCACT; site = the 11-nt donor
Procedure, shortened: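 In a pooled Escherichia coli screen for the IS621 bridge recombinase, donor and donor-binding-loop pairs were each placed with a 12-nt UMI on a plasmid bearing a promoterless kanamycin gene. This library was co-electroporated with a target plasmid encoding a fixed target and T7-inducible recombinase, and cells were plated either on IPTG (0.07 mM) plus kanamycin or without selection, in two replicates each. Recombinant UMIs were PCR-amplified across the donor–target junction and sequenced, and counts were converted to CPM, averaged over replicates, scaled by control-derived factors and reported as log10(CPM+1).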
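Also: IS621 bridge recombinase in Escherichia coli cells against a fixed T5 target plasmid.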

| Sequence | recombinant UMI read abundance (log10) |
| --- | --- |
| CTATTACCATGGACCGGTTTTCCCGGTAATCCGTATTTGAC (site CTAGTATCTGT) | 0 |
| CGTTGAACATGGACCGGTTTTCCCGGTAATCCGTATTTGTT (site CGTTGAACTAA) | 0.623 |
| GAATAGCCATGGACCGGTTTTCCCGGTAATCCGTATTTGCA (site GAATTGCCTTG) | 0 |
| CCTCTCTCATGGACCGGTTTTCCCGGTAATCCGTATTTGTA (site CTTCTCTCTTA) | 0.0036 |
| CAGTTCCCATGGACCGGTTTTCCCGGTAATCCGTATTTGCT (site CAATTCCCTAG) | 0.806 |
| GATCCTTCATGGACCGGTTTTCCCGGTAATCCGTATTTGTC (site GATCCTTCTGA) | 0.252 |
| GATAAGTCATGGACCGGTTTTCCCGGTAATCCGTATTTGCC (site GATAAGTCTGG) | 2.1 |
| AGGTCTACATGGACCGGTTTTCCCGGTAATCCGTATTTGAC (site AGGCCTACTGT) | 2.1 |
| ATGCGTTCATGGACCGGTTTTCCCGGTAATCCGTATTTGGG (site ATGCGTTCTCC) | 1.05 |
| AAGGATGCATGGACCGGTTTTCCCGGTAATCCGTATTTGTG (site AAGGATGCTCA) | 2.3 |
| GGCCACCCATGGACCGGTTTTCCCGGTAATCCGTATTTGCT (site GGCCACCCTAC) | 0.0158 |
| TCATGACCATGGACCGGTTTTCCCGGTAATCCGTATTTGCC (site TCATGACCTGG) | 0 |
| TATAATACATGGACCGGTTTTCCCGGTAATCCGTATTTGCA (site TAAAATACTTG) | 1.04 |
| TTAGCTGCATGGACCGGTTTTCCCGGTAATCCGTATTTGTG (site TTAGCTGCTAA) | 0.0166 |
| ACCAGGTCATGGACCGGTTTTCCCGGTAATCCGTATTTGTA (site ACCAGGTCTTA) | 2.54 |
| TTATACTCATGGACCGGTTTTCCCGGTAATCCGTATTTGCA (site TAATACTCTTG) | 1.93 |
| GCTTTCCCATGGACCGGTTTTCCCGGTAATCCGTATTTGAT (site GCTTCCCCTAT) | 0.00917 |
| AATGAGTCATGGACCGGTTTTCCCGGTAATCCGTATTTGAC (site AATGTGTCTGT) | 0.822 |
| CGCCGAACATGGACCGGTTTTCCCGGTAATCCGTATTTGCT (site CGCCGGACTAG) | 0.95 |
| CTCCCTACATGGACCGGTTTTCCCGGTAATCCGTATTTGCG (site CTCCCTACTCA) | 0.397 |
| ATCTATACATGGACCGGTTTTCCCGGTAATCCGTATTTGAA (site ATCTATACTTT) | 1.29 |
| CAGTTAGCATGGACCGGTTTTCCCGGTAATCCGTATTTGTG (site CAGTTAGCTCA) | 2.09 |
| GAGCTCACATGGACCGGTTTTCCCGGTAATCCGTATTTGAT (site GAGCTCACTGT) | 0.768 |
| CGAATTCCATGGACCGGTTTTCCCGGTAATCCGTATTTGTT (site CGGAATCCTAA) | 0 |
| AGCGTGACATGGACCGGTTTTCCCGGTAATCCGTATTTGCC (site AGCGTGACTGG) | 1.78 |

| Sequence | recombinant UMI read abundance (log10) |
| --- | --- |
| CACGTGGCATGGACCGGTTTTCCCGGTAATCCGTATTTGGA (site CACATGGCTTC) | 0.429 |
| TTTGCGGCATGGACCGGTTTTCCCGGTAATCCGTATTTGCT (site TTTGCGGCTAA) | 0.0285 |
| TTGATCTCATGGACCGGTTTTCCCGGTAATCCGTATTTGCG (site TTGATCTCTCG) | 1.95 |
| GTGGCACCATGGACCGGTTTTCCCGGTAATCCGTATTTGAG (site GTGGCACCTCT) | 0.0198 |
| AGCAAGACATGGACCGGTTTTCCCGGTAATCCGTATTTGCA (site AGGAAGACTTG) | 0.969 |
| TAAGGGGCATGGACCGGTTTTCCCGGTAATCCGTATTTGGC (site TAAGGGGCTGC) | 2.41 |
| ACATTGACATGGACCGGTTTTCCCGGTAATCCGTATTTGAA (site ACATTGACTTT) | 1.76 |
| AGTAGATCATGGACCGGTTTTCCCGGTAATCCGTATTTGGA (site AGTAGATCTTC) | 1.45 |
| TACTTGACATGGACCGGTTTTCCCGGTAATCCGTATTTGCT (site TACTTCACTAG) | 0.00555 |
| TACTTGTCATGGACCGGTTTTCCCGGTAATCCGTATTTGCT (site TACTTGACTAG) | 0 |
| GGCCGTACATGGACCGGTTTTCCCGGTAATCCGTATTTGCT (site CGCCGTACTAG) | 0.413 |
| GAGCGTTCATGGACCGGTTTTCCCGGTAATCCGTATTTGAA (site GAGCGTTCTTT) | 2.83 |
| TACTTTCCATGGACCGGTTTTCCCGGTAATCCGTATTTGCC (site TACTTTCCTGG) | 0 |
| ATGTAGTCATGGACCGGTTTTCCCGGTAATCCGTATTTGGT (site ATGTAGTCTAC) | 2.81 |
| ATCAAAGCATGGACCGGTTTTCCCGGTAATCCGTATTTGAG (site ATCTAAGCTCT) | 0.855 |
| ATTTATGCATGGACCGGTTTTCCCGGTAATCCGTATTTGGA (site ACTTATGCTTC) | 1.06 |
| GAATGGCCATGGACCGGTTTTCCCGGTAATCCGTATTTGGA (site GAATGGCCTTG) | 0 |
| GCGTAGCCATGGACCGGTTTTCCCGGTAATCCGTATTTGGG (site GCGCAGCCTCC) | 0.00818 |
| CGCAATCCATGGACCGGTTTTCCCGGTAATCCGTATTTGTG (site CGCAATCCTCA) | 0.631 |
| AGCCATTCATGGACCGGTTTTCCCGGTAATCCGTATTTGAC (site AGCCCTTCTGT) | 0 |
| ACTGGAACATGGACCGGTTTTCCCGGTAATCCGTATTTGAG (site ACTCGAACTCT) | 0.239 |
| ACTTTAACATGGACCGGTTTTCCCGGTAATCCGTATTTGGT (site ACTTTAACTAC) | 0.85 |
| TACTTGGCATGGACCGGTTTTCCCGGTAATCCGTATTTGTG (site TAATTGGCTCA) | 0.0141 |
| AGCTTAGCATGGACCGGTTTTCCCGGTAATCCGTATTTGCC (site AGCTTAGCTGG) | 0 |
| GTGTAGGCATGGACCGGTTTTCCCGGTAATCCGTATTTGTG (site GTGCAGGCTCA) | 1.36 |

| Sequence | recombinant UMI read abundance (log10) |
| --- | --- |
| GGAGTGGCATGGACCGGTTTTCCCGGTAATCCGTATTTGGT (site GGACTGGCTAC) | 0.0487 |
| CACTGCTCATGGACCGGTTTTCCCGGTAATCCGTATTTGCC (site CACTCCTCTGG) | 0 |
| CACTGCTCATGGACCGGTTTTCCCGGTAATCCGTATTTGCC (site CACTACTCTGG) | 2 |
| GGATTGACATGGACCGGTTTTCCCGGTAATCCGTATTTGCC (site GGATAGACTGG) | 1.42 |
| GCTTATACATGGACCGGTTTTCCCGGTAATCCGTATTTGCT (site GCTTATACTAG) | 0 |
| CTGGAAACATGGACCGGTTTTCCCGGTAATCCGTATTTGCA (site GTGGAAACTTG) | 0.00967 |
| GAAAAACCATGGACCGGTTTTCCCGGTAATCCGTATTTGGT (site GAAAAACCTAC) | 0 |
| CACTCGTCATGGACCGGTTTTCCCGGTAATCCGTATTTGCC (site CACTCATCTGG) | 2.88 |
| TTGCTAGCATGGACCGGTTTTCCCGGTAATCCGTATTTGAA (site TTGCTAGCTTT) | 0.252 |
| GGGACCTCATGGACCGGTTTTCCCGGTAATCCGTATTTGTA (site GGGACCTCTTA) | 2.24 |
| AATGTGTCATGGACCGGTTTTCCCGGTAATCCGTATTTGCC (site AATGTGTCTGG) | 2.81 |
| CGCCGTACATGGACCGGTTTTCCCGGTAATCCGTATTTGAT (site CGCCGTACTAT) | 1.37 |
| CAGTGGACATGGACCGGTTTTCCCGGTAATCCGTATTTGGG (site CAGTGGACTCC) | 0.0835 |
| TTGTGACCATGGACCGGTTTTCCCGGTAATCCGTATTTGAT (site TTGTGACCTAT) | 0.00587 |
| TCGACGGCATGGACCGGTTTTCCCGGTAATCCGTATTTGTG (site TCGACGGCTCA) | 0.539 |
| GAACCGTCATGGACCGGTTTTCCCGGTAATCCGTATTTGTT (site GAACCGTCTAA) | 1 |
| CGATGGTCATGGACCGGTTTTCCCGGTAATCCGTATTTGCT (site CGATCATCTAG) | 0 |
| GCGTAGCCATGGACCGGTTTTCCCGGTAATCCGTATTTGGG (site GCGTAGCCTCC) | 0.0103 |
| CGATATGCATGGACCGGTTTTCCCGGTAATCCGTATTTGGG (site CGATATGCTCC) | 0.685 |
| CTAGTATCATGGACCGGTTTTCCCGGTAATCCGTATTTGAC (site CTAATCTCTGT) | 0 |
| CGCTTCTCATGGACCGGTTTTCCCGGTAATCCGTATTTGGG (site CGCTTCTCTCC) | 0.00699 |
| ATCTATGCATGGACCGGTTTTCCCGGTAATCCGTATTTGAC (site ATCTATTCTGT) | 0 |
| AACCTTCCATGGACCGGTTTTCCCGGTAATCCGTATTTGAT (site AACCGTCCTAT) | 0.0124 |
| CATGCGCCATGGACCGGTTTTCCCGGTAATCCGTATTTGTG (site CAAGCGCCTCA) | 0.0274 |
| TGTTTCCCATGGACCGGTTTTCCCGGTAATCCGTATTTGTA (site TGTTGCCCTTA) | 0.0291 |
